Assay results from patent publication US20230044690A1, “PROGESTERONE FORMULATION TO TRIGGER OVULATION AND PROVIDE LUTEAL PHASE SUPPORT” (AUGUSTA UNIVERSITY RESEARCH INSTITUTE, INC., priority 2019, published 2023).
Where two headings read alike, the source gives them in different places.

What was measured:
[1] = circulating progestins, compared by activity with 0.5 ng preovulatory progesterone; cited from earlier work
[2] = tested on: ovulation; type: in vivo, human; details: case 3
Protocol: A person, G2 P1, SAB1, height 152 cm, weight 164 lb was referred for infertility treatment following 6-month inability to conceive naturally. Patient's medical history was significant for PCOS and subclinical hypothyroidism, for which they were taking levothyroxine […]. Patient had menarche at 12, average period duration of 45 days, average menses duration of 6 days. Patient's fallopian tubes were both patent per HSG, with a normal uterine cavity (FIG. 6E). Their AMH was 9.3 ng/ml.
The medication regiment, at the beginning of the third attempt was the same as in the previous attempt when the patient became pregnant with 5 mg of Letrozole in addition to 100 mg CC for 5 days starting on the 3rd day of their period. […] Before the trigger […] P4 and LH were 0.62 ng/ml and 4.26 IU/L respectively (Table 3) and ultrasound identified three follicles 22, 22 and 19 mm (FIG. 6C-6D).
Seven days after the trigger shot, P4 level was 38.39 ng/ml at which time the patient was started on 200 mg progesterone vaginal suppository daily.

[3] = tested on: gonadotropins surge; assay: Reported progesterone dose and pharmacodynamics for induction of a gonadotropins surge (Leyendecker et al, 1972); type: in vivo, human; details: about 5 mg of progesterone in sesame oil, intramuscular injection; estimate from Leyendecker 1972
Protocol: The lowest dose of progesterone reported for induction of a gonadotropins surge is […] injected intramuscularly (Leyendecker, et al, 1972).
Consequently, the target cumulative progesterone level in circulation was 1 ng/ml. Based on pharmacodynamics of progesterone (Leyendecker, et al, 1972), it was estimated that in order to achieve circulating progesterone level at its peak (120 minutes post injection) 1 ng/ml, an additional […] was needed to add to the patient's own 0.63 ng/ml. This would be achieved with about 5 mg of progesterone in sesame oil for intramuscular injection. […] Furthermore, progesterone continued to rise to the expected level several days later. The patient's P4 level on day 5 post trigger was excellent and additional supplementation with progesterone thereafter was given only for an abundance of caution.

[4] = tested on: gonadotropins surge; details: cited from earlier work
[5] = tested on: ovulation; type: in vivo, human
Protocol: For the natural cycle, they were monitored with ultrasound at the base line on day 2, and then day 12 and 13. At day 13 of the cycle, their leading follicle had reached a size of 17 mm (FIG. 4B), P4 was 1.5 ng/ml and LH was 5 IU/L. They were given an intramuscular injection of 5 mg of progesterone. The protocol is outlined in FIG. 4A
Failure of the follicle to rupture was attributed to its size (17 mm) at the time of the trigger.

CC(=O)[C@H]1CC[C@H]2[C@@H]3C=CC4=CC(=O)CC[C@@]4(C)[C@@H]3CC[C@]12C [Dydrogesterone]
Consensus value [1]: 10 mg

C#CC1(O)CC[C@H]2[C@@H]3CCC4=CC(=O)CC[C@@H]4[C@H]3CC[C@@]21CC (mixture of isomers) [D/L norgestrel]
Consensus value [1]: 0.075 mg

C#C[C@]1(O)CC[C@H]2[C@@H]3CCC4=CC(=O)CC[C@@H]4[C@H]3CC[C@@]21C [Norethindrone]
Consensus value [1]: 0.35 mg

CC(=O)O[C@]1(C(C)=O)CC[C@H]2[C@@H]3C[C@H](C)C4=CC(=O)CC[C@]4(C)[C@H]3CC[C@@]21C [Medroxyprogesterone acetate]
Consensus value [1]: 5 mg

CC(=O)[C@H]1CC[C@H]2[C@@H]3CCC4=CC(=O)CC[C@]4(C)[C@H]3CC[C@]12C [progesterone]
LH ([2]; 17 hours 30 minutes after trigger shot, 5 mg progesterone in oil): 37.01 IU/L
LH ([2]; First follicular ultrasound, before trigger shot): 9.47 IU/L
LH ([2]; Stimulation day 10, before trigger shot): 5.09 IU/L
Ultrasound observation: uterine lining ([2]; day 3 after trigger shot): lining - 15.2 mm
P4 level ([2]; day 5 post trigger): excellent
LH ([2]; day of progesterone trigger shot (stimulation day 12), before the trigger): 4.26 IU/L
Ultrasound observation: uterine lining ([2]; day of progesterone trigger shot, before the trigger): 10C-10D) Uterine lining 8.8 mm
Pregnancy outcome ([2]; period 2 weeks later, 200 mg progesterone vaginal suppository daily from day 7): no pregnancy occurred
Estimated additional circulating progesterone level at its peak [3]: 0.35 ng/mL
Lowest dose reported for induction of a gonadotropins surge ([4]; injected intramuscularly): 10 mg
Time of peak circulating progesterone level post injection ([4]; intramuscular injection): 120 min
Circulating hormone level LH ([5]; 0 hrs after trigger injection, 5 mg progesterone i.m., case 1): 10.9
Follicle rupture ([5]; 17 mm leading follicle at trigger, 5 mg progesterone i.m., case 1): failed to rupture
Circulating hormone level LH ([5]; 10 hrs after trigger injection, 5 mg progesterone i.m., case 1): 28.4
Circulating hormone level LH ([5]; 49 hrs after trigger injection, 5 mg progesterone i.m., case 1): 11.36
Time until LH was at the ovulation level ([5]; after 5 mg progesterone i.m., case 1): ≤ 12 h
LH ([5]; day 13 of the cycle, before the progesterone injection, case 1): 5 IU/L
P4 ([5]; female, human, in vivo): 1.5 ng/mL
